Where two headings read alike, the source gives them in different places.
How the values were obtained:
[1] = format: physicochemical; settings: for Stability in Powder Concentrate (content by LCMSMS): stored at room temperature (21-25° C.)
Protocol: At each time period, 0.05 g of powder was dissolved in 10 ml-15 of ethanol, diluted to fall within the analytical range, and injected into the LCMSMS for analysis.

[2] = Stability of cannabinoid and Vitamin E components of Beverage 2 (AB Red) stored at 8° C. and 21-25° C., LCMSMS over 570 days; settings: for Chemical stability over the entire period (result in words): AB Red
Protocol: The LCMSMS was calibrated for 0-50 ng/ml cannabinoids with the same resin material used in the preparation of the concentrates. At each time period, 100 μml of beverage was diluted with 10 ml of methanol and injected into the LCMSMS for analysis.

CCCCCc1cc(O)c2c(c1)OC(C)(C)[C@@H]1CCC(C)=C[C@@H]21 [D9 THC, delta-9-tetrahydrocannabinol, reference compound]
Chemical stability over the entire period (result in words) ([1]; powder concentrate, room temperature (21-25° C.), 570 days): no significant degradation
Stability in Powder Concentrate (content by LCMSMS) ([1]; day 0): 2.55 mg/g powder
Stability in Powder Concentrate (content by LCMSMS) ([1]; day 1): 2.55 mg/g powder
Stability in Powder Concentrate (content by LCMSMS) ([1]; day 2): 2.46 mg/g powder
Stability in Powder Concentrate (content by LCMSMS) ([1]; day 3): 2.63 mg/g powder
Stability in Powder Concentrate (content by LCMSMS) ([1]; day 5): 2.66 mg/g powder
Stability in Powder Concentrate (content by LCMSMS) ([1]; day 8): 2.49 mg/g powder
Stability in Powder Concentrate (content by LCMSMS) ([1]; day 9): 2.49 mg/g powder
Stability in Powder Concentrate (content by LCMSMS) ([1]; day 10): 2.60 mg/g powder
Stability in Powder Concentrate (content by LCMSMS) ([1]; day 11): 2.58 mg/g powder
Stability in Powder Concentrate (content by LCMSMS) ([1]; day 12): 2.65 mg/g powder
Stability in Powder Concentrate (content by LCMSMS) ([1]; day 15): 2.49 mg/g powder
Stability in Powder Concentrate (content by LCMSMS) ([1]; day 16): 2.54 mg/g powder
Stability in Powder Concentrate (content by LCMSMS) ([1]; day 17): 2.54 mg/g powder
Stability in Powder Concentrate (content by LCMSMS) ([1]; day 18): 2.55 mg/g powder
Stability in Powder Concentrate (content by LCMSMS) ([1]; day 19): 2.51 mg/g powder
Stability in Powder Concentrate (content by LCMSMS) ([1]; day 22): 2.46 mg/g powder
Stability in Powder Concentrate (content by LCMSMS) ([1]; day 23): 2.65 mg/g powder
Stability in Powder Concentrate (content by LCMSMS) ([1]; day 24): 2.60 mg/g powder
Stability in Powder Concentrate (content by LCMSMS) ([1]; day 25): 2.55 mg/g powder
Stability in Powder Concentrate (content by LCMSMS) ([1]; day 26): 2.52 mg/g powder
Stability in Powder Concentrate (content by LCMSMS) ([1]; day 29): 2.47 mg/g powder
Stability in Powder Concentrate (content by LCMSMS) ([1]; day 30): 2.66 mg/g powder
Stability in Powder Concentrate (content by LCMSMS) ([1]; day 60): 2.66 mg/g powder
Stability in Powder Concentrate (content by LCMSMS) ([1]; day 90): 2.49 mg/g powder
Stability in Powder Concentrate (content by LCMSMS) ([1]; day 120): 2.66 mg/g powder
Stability in Powder Concentrate (content by LCMSMS) ([1]; day 150): 2.61 mg/g powder
Stability in Powder Concentrate (content by LCMSMS) ([1]; day 180): 2.59 mg/g powder
Stability in Powder Concentrate (content by LCMSMS) ([1]; day 210): 2.54 mg/g powder
Stability in Powder Concentrate (content by LCMSMS) ([1]; day 240): 2.53 mg/g powder
Stability in Powder Concentrate (content by LCMSMS) ([1]; day 270): 2.47 mg/g powder
Stability in Powder Concentrate (content by LCMSMS) ([1]; day 300): 2.57 mg/g powder
Stability in Powder Concentrate (content by LCMSMS) ([1]; day 330): 2.49 mg/g powder
Stability in Powder Concentrate (content by LCMSMS) ([1]; day 360): 2.58 mg/g powder
Stability in Powder Concentrate (content by LCMSMS) ([1]; day 390): 2.48 mg/g powder
Stability in Powder Concentrate (content by LCMSMS) ([1]; day 420): 2.53 mg/g powder
Stability in Powder Concentrate (content by LCMSMS) ([1]; day 450): 2.61 mg/g powder
Stability in Powder Concentrate (content by LCMSMS) ([1]; day 480): 2.65 mg/g powder
Stability in Powder Concentrate (content by LCMSMS) ([1]; day 510): 2.64 mg/g powder
Stability in Powder Concentrate (content by LCMSMS) ([1]; day 540): 2.47 mg/g powder
Stability in Powder Concentrate (content by LCMSMS) ([1]; day 570): 2.64 mg/g powder
Stability of Cannabinoids in AB Red ([2]; 8° C., 0 days): 12.9 µg/mL
Stability of Cannabinoids in AB Red ([2]; 8° C., 1 days): 13.0 µg/mL
Stability of Cannabinoids in AB Red ([2]; 8° C., 2 days): 13.0 µg/mL
Stability of Cannabinoids in AB Red ([2]; 8° C., 3 days): 12.7 µg/mL
Stability of Cannabinoids in AB Red ([2]; 8° C., 5 days): 13.0 µg/mL
Stability of Cannabinoids in AB Red ([2]; 8° C., 8 days): 12.6 µg/mL
Stability of Cannabinoids in AB Red ([2]; 8° C., 9 days): 12.7 µg/mL
Stability of Cannabinoids in AB Red ([2]; 8° C., 10 days): 12.8 µg/mL
Stability of Cannabinoids in AB Red ([2]; 8° C., 11 days): 12.8 µg/mL
Stability of Cannabinoids in AB Red ([2]; 8° C., 12 days): 12.9 µg/mL
Stability of Cannabinoids in AB Red ([2]; 8° C., 15 days): 12.9 µg/mL
Stability of Cannabinoids in AB Red ([2]; 8° C., 16 days): 12.7 µg/mL
Stability of Cannabinoids in AB Red ([2]; 8° C., 17 days): 12.6 µg/mL
Stability of Cannabinoids in AB Red ([2]; 8° C., 18 days): 12.8 µg/mL
Stability of Cannabinoids in AB Red ([2]; 8° C., 19 days): 12.7 µg/mL
Stability of Cannabinoids in AB Red ([2]; 8° C., 22 days): 12.7 µg/mL
Stability of Cannabinoids in AB Red ([2]; 8° C., 23 days): 12.9 µg/mL
Stability of Cannabinoids in AB Red ([2]; 8° C., 24 days): 12.9 µg/mL
Stability of Cannabinoids in AB Red ([2]; 8° C., 25 days): 12.9 µg/mL
Stability of Cannabinoids in AB Red ([2]; 8° C., 26 days): 12.7 µg/mL
Stability of Cannabinoids in AB Red ([2]; 8° C., 29 days): 12.7 µg/mL
Stability of Cannabinoids in AB Red ([2]; 8° C., 30 days): 12.9 µg/mL
Stability of Cannabinoids in AB Red ([2]; 8° C., 60 days): 12.5 µg/mL
Stability of Cannabinoids in AB Red ([2]; 8° C., 90 days): 13.0 µg/mL
Stability of Cannabinoids in AB Red ([2]; 8° C., 120 days): 12.4 µg/mL
Stability of Cannabinoids in AB Red ([2]; 8° C., 150 days): 12.8 µg/mL
Stability of Cannabinoids in AB Red ([2]; 8° C., 180 days): 12.6 µg/mL
Stability of Cannabinoids in AB Red ([2]; 8° C., 210 days): 12.3 µg/mL
Stability of Cannabinoids in AB Red ([2]; 8° C., 240 days): 12.4 µg/mL
Stability of Cannabinoids in AB Red ([2]; 8° C., 270 days): 12.6 µg/mL
Stability of Cannabinoids in AB Red ([2]; 8° C., 300 days): 12.4 µg/mL
Stability of Cannabinoids in AB Red ([2]; 8° C., 330 days): 12.7 µg/mL
Stability of Cannabinoids in AB Red ([2]; 8° C., 390 days): 12.4 µg/mL
Stability of Cannabinoids in AB Red ([2]; 8° C., 420 days): 12.4 µg/mL
Stability of Cannabinoids in AB Red ([2]; 8° C., 450 days): 12.4 µg/mL
Stability of Cannabinoids in AB Red ([2]; 8° C., 480 days): 12.2 µg/mL
Stability of Cannabinoids in AB Red ([2]; 8° C., 510 days): 12.0 µg/mL
Stability of Cannabinoids in AB Red ([2]; 8° C., 540 days): 11.9 µg/mL
Stability of Cannabinoids in AB Red ([2]; 8° C., 570 days): 11.8 µg/mL
Stability of Cannabinoids in AB Red ([2]; 21-25° C., 0 days): 12.9 µg/mL
Stability of Cannabinoids in AB Red ([2]; 21-25° C., 1 days): 13.0 µg/mL
Stability of Cannabinoids in AB Red ([2]; 21-25° C., 2 days): 13.0 µg/mL
Stability of Cannabinoids in AB Red ([2]; 21-25° C., 3 days): 12.6 µg/mL
Stability of Cannabinoids in AB Red ([2]; 21-25° C., 5 days): 12.4 µg/mL
Stability of Cannabinoids in AB Red ([2]; 21-25° C., 8 days): 12.7 µg/mL
Stability of Cannabinoids in AB Red ([2]; 21-25° C., 9 days): 12.8 µg/mL
Stability of Cannabinoids in AB Red ([2]; 21-25° C., 10 days): 12.5 µg/mL
Stability of Cannabinoids in AB Red ([2]; 21-25° C., 11 days): 12.9 µg/mL
Stability of Cannabinoids in AB Red ([2]; 21-25° C., 12 days): 13.0 µg/mL
Stability of Cannabinoids in AB Red ([2]; 21-25° C., 15 days): 12.7 µg/mL
Stability of Cannabinoids in AB Red ([2]; 21-25° C., 16 days): 12.4 µg/mL
Stability of Cannabinoids in AB Red ([2]; 21-25° C., 17 days): 12.9 µg/mL
Stability of Cannabinoids in AB Red ([2]; 21-25° C., 18 days): 12.8 µg/mL
Stability of Cannabinoids in AB Red ([2]; 21-25° C., 19 days): 12.8 µg/mL
Stability of Cannabinoids in AB Red ([2]; 21-25° C., 22 days): 12.9 µg/mL
Stability of Cannabinoids in AB Red ([2]; 21-25° C., 23 days): 12.9 µg/mL
Stability of Cannabinoids in AB Red ([2]; 21-25° C., 24 days): 12.5 µg/mL
Stability of Cannabinoids in AB Red ([2]; 21-25° C., 25 days): 12.5 µg/mL
Stability of Cannabinoids in AB Red ([2]; 21-25° C., 26 days): 12.4 µg/mL
Stability of Cannabinoids in AB Red ([2]; 21-25° C., 29 days): 12.7 µg/mL
Stability of Cannabinoids in AB Red ([2]; 21-25° C., 30 days): 12.4 µg/mL
Stability of Cannabinoids in AB Red ([2]; 21-25° C., 60 days): 12.2 µg/mL
Stability of Cannabinoids in AB Red ([2]; 21-25° C., 90 days): 12.8 µg/mL
Stability of Cannabinoids in AB Red ([2]; 21-25° C., 120 days): 12.4 µg/mL
Stability of Cannabinoids in AB Red ([2]; 21-25° C., 150 days): 12.4 µg/mL
Stability of Cannabinoids in AB Red ([2]; 21-25° C., 180 days): 12.8 µg/mL
Stability of Cannabinoids in AB Red ([2]; 21-25° C., 210 days): 12.4 µg/mL
Stability of Cannabinoids in AB Red ([2]; 21-25° C., 240 days): 12.5 µg/mL
Stability of Cannabinoids in AB Red ([2]; 21-25° C., 270 days): 12.5 µg/mL
Stability of Cannabinoids in AB Red ([2]; 21-25° C., 300 days): 12.4 µg/mL
Stability of Cannabinoids in AB Red ([2]; 21-25° C., 330 days): 12.1 µg/mL
Stability of Cannabinoids in AB Red ([2]; 21-25° C., 390 days): 12.1 µg/mL
Stability of Cannabinoids in AB Red ([2]; 21-25° C., 420 days): 12.2 µg/mL
Stability of Cannabinoids in AB Red ([2]; 21-25° C., 450 days): 12.2 µg/mL
Stability of Cannabinoids in AB Red ([2]; 21-25° C., 480 days): 11.8 µg/mL
Stability of Cannabinoids in AB Red ([2]; 21-25° C., 510 days): 12.3 µg/mL
Stability of Cannabinoids in AB Red ([2]; 21-25° C., 540 days): 12.2 µg/mL
Stability of Cannabinoids in AB Red ([2]; 21-25° C., 570 days): 11.8 µg/mL
Chemical stability over the entire period (result in words) ([2]; stored at 8° C., 570 days): high degree of stability
Chemical stability over the entire period (result in words) ([2]; stored at 21-25° C., 570 days): high degree of stability

Reference: patent US20240415914A1, “Water Dispersible Cannabinoid Compositions” (priority 2021, published 2024)
